Experiments:
Experiment in all cases: relative viability (nuclei count vs DMSO), 5 days (fraction); higher = more cells survive
[1] = compound: CN1CCN(CC1)C2=CC(=C(C=C2)NC3=NC(=C(S3)C(=O)C4=C(C=CC=C4Cl)Cl)N)OC [XMD14-99] + CC(C)C[C@H](NC(=O)[C@H](Cc1ccccc1)NC(=O)c1cnccn1)B(O)O [Bortezomib] (partner 0.002 µM)
Procedure, shortened: (§1)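 Relative viability equals treated-well nuclei counts divided by vehicle-well nuclei counts. Counts came from 4× images of lung cancer cell lines grown in 1536-well plates for 5 days after pin-tool dosing on the day after seeding. Dosing used one drug alone or a fixed anchor-drug dose plus five library-drug doses (not always all listed) in √10 steps, and values are medians of duplicate plates.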

[2] = compound: CN1CCN(CC1)C2=CC(=C(C=C2)NC3=NC(=C(S3)C(=O)C4=C(C=CC=C4Cl)Cl)N)OC [XMD14-99] + Cc1nc(Nc2ncc(C(=O)Nc3c(C)cccc3Cl)s2)cc(N2CCN(CCO)CC2)n1 [Dasatinib] (partner 0.075 µM)
Procedure, shortened: as §1

[3] = compound: N[C@@H]1CCCN(c2c(/C=C3\SC(=O)NC3=O)cccc2-c2ccccc2)C1 [AZD1208] + CC(=O)Nc1cccc(-n2c(=O)n(C3CC3)c(=O)c3c(Nc4ccc(I)cc4F)n(C)c(=O)c(C)c32)c1 [Trametinib] (partner 0.02 µM)
Procedure, shortened: as §1

[4] = compound: N[C@@H]1CCCN(c2c(/C=C3\SC(=O)NC3=O)cccc2-c2ccccc2)C1 [AZD1208] + COc1cc2c(Oc3ccc(NC(=O)C4(C(=O)Nc5ccc(F)cc5)CC4)cc3F)ccnc2cc1OCCCN1CCOCC1 [Foretinib] (partner 0.25 µM)
Procedure, shortened: as §1

Row | Cell Line | relative viability ([1]; first compound 0.08 µM) | relative viability ([1]; first compound 0.8 µM) | relative viability ([1]; first compound 2.53 µM) | relative viability ([1]; first compound 8 µM) | relative viability ([2]; first compound 0.08 µM) | relative viability ([2]; first compound 0.8 µM) | relative viability ([2]; first compound 2.53 µM) | relative viability ([2]; first compound 8 µM) | relative viability ([3]; first compound 0.08 µM) | relative viability ([3]; first compound 0.253 µM) | relative viability ([3]; first compound 0.8 µM) | relative viability ([3]; first compound 2.53 µM) | relative viability ([3]; first compound 8 µM) | relative viability ([4]; first compound 0.08 µM) | relative viability ([4]; first compound 0.253 µM) | relative viability ([4]; first compound 0.8 µM) | relative viability ([4]; first compound 2.53 µM) | relative viability ([4]; first compound 8 µM)
1 | NCI-H460 | 1.06 | 1.15 | 0.983 | 0.784 | 0.497 | 0.545 | 0.475 | 0.475 | 0.137 | 0.189 | 0.138 | 0.109 | 0.124 | 0.992 | 1.09 | 0.978 | 0.987 | 1.11
2 | EPLC-272H | 0.886 | 1.01 | 0.904 | 0.912 | 0.323 | 0.325 | 0.402 | 0.392 | 0.312 | 0.268 | 0.279 | 0.254 | 0.315 | 0.714 | 0.71 | 0.618 | 0.564 | 0.478
